Assays:
[1] = biological target: T1, CDK7 (Homo sapiens, UniProt P50613); test: KINOMEscan; assay type: binding; details: 2000 nM; read-out: Percent Control
T1 construct: purchased DiscoverX (Eurofins) KINOMEscan / scanEDGE, inferred from the naming style

[2] = biological target: T2, EGFR (Homo sapiens, UniProt P00533); test: KINOMEscan; assay type: binding; details: 2000 nM; read-out: Percent Control
T2 construct: purchased DiscoverX (Eurofins) KINOMEscan / scanEDGE, inferred from the naming style

[3] = biological target: T3, IGF1R (Homo sapiens, UniProt P08069); test: KINOMEscan; assay type: binding; details: 2000 nM; read-out: Percent Control
T3 construct: purchased DiscoverX (Eurofins) KINOMEscan / scanEDGE, inferred from the naming style

[4] = biological target: T4, EPHA2 (Homo sapiens, UniProt P29317); test: KINOMEscan; assay type: binding; details: 2000 nM; read-out: Percent Control
T4 construct: purchased DiscoverX (Eurofins) KINOMEscan / scanEDGE, inferred from the naming style

[5] = biological target: T5, CDK2 (Homo sapiens, UniProt P24941); test: KINOMEscan; assay type: binding; details: 2000 nM; read-out: Percent Control
T5 construct: purchased DiscoverX (Eurofins) KINOMEscan / scanEDGE, inferred from the naming style

[6] = biological target: T6, ALK (Homo sapiens, UniProt Q9UM73); test: KINOMEscan; assay type: binding; details: 2000 nM; read-out: Percent Control
T6 construct: purchased DiscoverX (Eurofins) KINOMEscan / scanEDGE, inferred from the naming style

[7] = biological target: T7, ADCK3 (Homo sapiens, UniProt Q8NI60); test: KINOMEscan; assay type: binding; details: 2000 nM; read-out: Percent Control
T7 construct: purchased DiscoverX (Eurofins) KINOMEscan / scanEDGE, inferred from the naming style

[8] = biological target: T8, AKT2 (Homo sapiens, UniProt P31751); test: KINOMEscan; assay type: binding; details: 2000 nM; read-out: Percent Control
T8 construct: purchased DiscoverX (Eurofins) KINOMEscan / scanEDGE, inferred from the naming style

[9] = biological target: T9, ABL1-phosphorylated (Homo sapiens, UniProt P00519); test: KINOMEscan; assay type: binding; details: 2000 nM; read-out: Percent Control
T9 construct: purchased DiscoverX (Eurofins) KINOMEscan / scanEDGE, inferred from the naming style

[10] = biological target: T10, ERK1 (Homo sapiens, UniProt P27361); test: KINOMEscan; assay type: binding; details: 2000 nM; read-out: Percent Control
T10 construct: purchased DiscoverX (Eurofins) KINOMEscan / scanEDGE, inferred from the naming style

[11] = biological target: T11, FGFR2 (Homo sapiens, UniProt P21802); test: KINOMEscan; assay type: binding; details: 2000 nM; read-out: Percent Control
T11 construct: purchased DiscoverX (Eurofins) KINOMEscan / scanEDGE, inferred from the naming style

[12] = biological target: T12, DCAMKL1 (Homo sapiens, UniProt O15075); test: KINOMEscan; assay type: binding; details: 2000 nM; read-out: Percent Control
T12 construct: purchased DiscoverX (Eurofins) KINOMEscan / scanEDGE, inferred from the naming style

[13] = biological target: T13, FLT3 (Homo sapiens, UniProt P36888); test: KINOMEscan; assay type: binding; details: 2000 nM; read-out: Percent Control
T13 construct: purchased DiscoverX (Eurofins) KINOMEscan / scanEDGE, inferred from the naming style

[14] = test system: U2OS cells; test: EdU labeling (DNA synthesis); assay type: cell-based; details: absence of IR
Method: U2OS cells were seeded on sterilized slides and treated with 10 or 30 μM of 757 for 6 h, or 2 mM of hydroxyurea (HU) for 3 h (DMSO was used as control vehicle). Last 40 min of treatment, 10 μM of the thymidine analogue 5-ethynyl-2′-deoxyuridine (EdU) (Sigma Aldrich, catalog no. 1T511285) was added; cells were washed with PBS and then fixed with paraformaldehyde 4% and sucrose 2%. For the detection of incorporated EdU, the Click IT reaction was performed in accordance with the supplier’s recommendations (Life Technologies/ThermoFisher Scientific). Images were acquired with a Zeiss LSM 780 microscope using a 40× oil immersion lens and processed in ImageJ and CellProfiler (version 2.2.0).

[15] = test system: U2OS cells; test: DNA fiber assay; assay type: cell-based; details: 10 μM
Method: 1 × 10^5 cells were seeded into 6-well plates, 24 h later cells were treated with the indicated inhibitors or nucleosides, and 24 h later DNA was labeled with 25 μM CldU (Sigma, C6891) in pre-warmed DMEM for 20 min, washed and then labeled with 250 μM IdU (Sigma I7125) in pre-warmed DMEM for 20 min, before harvesting by scraping in cold PBS. Harvested cells were diluted to 1 × 10^6 cells/mL, spreading and staining was performed as described previously described. Fluorescence images were captured using a Zeiss LSM 780 inverted confocal microscope using a 63 × 1.4 oil immersion objective, excitation wavelengths of 488 and 555 nm, and analyzed using the ImageJ software. At least 300 unidirectional forks labeled with both CldU and IdU were measured for every condition.

[16] = test system: cell lines representing pancreatic, gastric, and colon cancer; test: Cell viability of cancer cell lines; assay type: cell-based; details: prolonged incubation (72 h)
Method: Cell proliferation was assayed by quantifying total cellular protein levels after indicated treatments and incubation times using the Sulphorhodamine B kit, TOX6 (Sigma-Aldrich). MIA PaCa-2, PANC1, SW620, and SW480 cells were plated at a density of 6 × 10^3 cells/well in 96-well plates (CLS3596, Sigma-Aldrich) and allowed to attach overnight. The following day, compounds were diluted in dose–response curve mode, required volume was transferred to assay medium to a maximal DMSO concentration of 0.1%. The diluted compounds were added to the cells with a starting dose–response concentration of 100 µM, all compounds were tested in duplicate plates. After 72 h of incubation with compounds, total protein per well was precipitated using TCA according to the manufacturer's instructions; the sulphorhodamine dye was added to the air-dried wells. After 20 min incubation at room temperature, the dye was discarded and the samples were gently rinsed with 1% HOAc until clear. After air drying, bound dye was solubilized in 10 mM Tris base, and the absorbance of dye was measured at 565 nm. To quantify growth, samples were collected also at t = 0 h, and the resulting absorbance was set to 100%.

[17] = test system: U2OS cells; test: DDR signaling, western blot / RPA32 intensity; assay type: cell-based
Method: Cells were lysed on ice using the NP-40 lysis buffer (50 mM Tris–HCl pH 8.0, 150 mM NaCl, 1% NP-40) supplemented with protease and phosphatase inhibitors (Roche). Protein lysates were quantified using the Pierce BCA Protein Assay Kit (ThermoFisher Scientific), equal amounts of protein were heated to 70 °C in NuPAGE LDS Sample Buffer (ThermoFisher Scientific) and loaded on Mini-PROTEAN® precast gels (Bio-Rad) and run at 120 V. Transfer to nitrocellulose membrane (Bio-Rad) was done using Trans-Blot Turbo Transfer System (Bio-Rad). Membranes were blocked for 1 h at RT in blocking buffer (5% BSA, 0.1% Tween-20 in PBS, or 1:1 Li-Cor Blocking Buffer/TBS + 0.05% Tween-20 (TBS-T)), incubated with primary antibodies overnight at 4 °C and then incubated 1 h at RT with secondary antibodies diluted at 1:10,000 in 1:1 Li-Cor blocking buffer/TBS-T. Bands were visualized with an Odyssey Fc Imager and analyzed with ImageJ or with Image Studio Software (Li-Cor Biosciences). Uncropped western blots are shown in Supplementary Figure 10, 11, 12, 13, 14, 15, 16.

[18] = test system: U2OS cells; test: IR-induced Mre11 / Nbs1 foci formation; assay type: cell-based; details: treatment prior to IR (6 Gy, 2 h recovery)
Method: Cells were grown on sterilized coverslips and fixed with 4% paraformaldehyde (PFA) (Santa Cruz) and 2% sucrose (Sigma Aldrich) for 15 min at room temperature. They were then permeabilized with 0.2% NP-40 (Thermo Scientific) for 10 min at room temperature followed by 30 min of blocking in blocking buffer (2 or 3% BSA, 5% glycerol, 0.1% Tween 20 (Sigma Aldrich)). Coverslips were subsequently incubated for 1, 2, or 24 h in primary antibody and 40 min in secondary antibody diluted in blocking buffer, DNA was stained with DAPI for 10 min. The coverslips were mounted with Prolonged Gold mounting medium (Invitrogen). Images were acquired with a Zeiss LSM 780 microscope using a 40× or 63× oil immersion lens and processed in ImageJ and CellProfiler.

T3 sequence (P08069 31-1367): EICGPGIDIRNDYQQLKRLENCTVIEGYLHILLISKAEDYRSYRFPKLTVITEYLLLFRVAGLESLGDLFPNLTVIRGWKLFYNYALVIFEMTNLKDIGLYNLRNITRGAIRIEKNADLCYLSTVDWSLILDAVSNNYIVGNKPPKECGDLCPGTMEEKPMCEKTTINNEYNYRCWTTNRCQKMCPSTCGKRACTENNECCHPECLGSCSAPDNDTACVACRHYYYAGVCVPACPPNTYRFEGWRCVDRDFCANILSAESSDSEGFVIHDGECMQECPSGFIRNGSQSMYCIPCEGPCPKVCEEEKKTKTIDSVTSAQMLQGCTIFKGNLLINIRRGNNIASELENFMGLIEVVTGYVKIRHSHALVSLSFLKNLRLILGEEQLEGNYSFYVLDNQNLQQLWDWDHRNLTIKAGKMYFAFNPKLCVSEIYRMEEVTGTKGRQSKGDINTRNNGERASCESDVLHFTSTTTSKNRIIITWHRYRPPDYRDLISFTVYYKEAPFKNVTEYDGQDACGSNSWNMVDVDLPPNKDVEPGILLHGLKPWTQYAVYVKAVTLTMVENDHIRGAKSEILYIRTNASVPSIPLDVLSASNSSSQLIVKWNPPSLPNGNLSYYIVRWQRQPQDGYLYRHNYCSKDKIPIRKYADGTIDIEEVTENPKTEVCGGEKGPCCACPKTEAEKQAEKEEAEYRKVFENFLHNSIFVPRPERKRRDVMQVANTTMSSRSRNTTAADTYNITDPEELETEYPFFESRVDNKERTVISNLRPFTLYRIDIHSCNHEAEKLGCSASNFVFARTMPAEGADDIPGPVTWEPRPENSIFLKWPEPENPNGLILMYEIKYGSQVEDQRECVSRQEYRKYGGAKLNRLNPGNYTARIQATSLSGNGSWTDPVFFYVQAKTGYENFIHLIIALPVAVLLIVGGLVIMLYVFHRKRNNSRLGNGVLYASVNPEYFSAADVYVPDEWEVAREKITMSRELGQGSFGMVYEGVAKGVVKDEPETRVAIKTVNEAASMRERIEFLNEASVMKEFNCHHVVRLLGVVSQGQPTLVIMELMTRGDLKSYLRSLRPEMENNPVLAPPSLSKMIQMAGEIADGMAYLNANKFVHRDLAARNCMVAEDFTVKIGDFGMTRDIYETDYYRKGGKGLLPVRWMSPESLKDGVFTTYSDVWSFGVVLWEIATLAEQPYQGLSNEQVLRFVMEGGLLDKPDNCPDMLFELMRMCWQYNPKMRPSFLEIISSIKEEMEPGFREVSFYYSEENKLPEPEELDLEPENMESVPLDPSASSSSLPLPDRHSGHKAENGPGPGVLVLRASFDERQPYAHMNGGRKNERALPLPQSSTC
T10 sequence (P27361 whole entry): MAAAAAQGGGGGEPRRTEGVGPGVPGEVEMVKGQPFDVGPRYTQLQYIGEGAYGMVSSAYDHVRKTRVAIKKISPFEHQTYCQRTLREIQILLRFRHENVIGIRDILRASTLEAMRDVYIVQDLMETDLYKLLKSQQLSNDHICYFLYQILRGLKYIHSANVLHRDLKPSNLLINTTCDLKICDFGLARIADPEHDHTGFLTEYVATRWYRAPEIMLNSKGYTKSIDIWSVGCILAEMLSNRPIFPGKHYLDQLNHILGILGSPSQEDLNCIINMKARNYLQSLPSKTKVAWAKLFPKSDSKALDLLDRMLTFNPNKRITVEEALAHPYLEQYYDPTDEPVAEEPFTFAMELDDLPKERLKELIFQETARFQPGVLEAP
T9 sequence (P00519 whole entry): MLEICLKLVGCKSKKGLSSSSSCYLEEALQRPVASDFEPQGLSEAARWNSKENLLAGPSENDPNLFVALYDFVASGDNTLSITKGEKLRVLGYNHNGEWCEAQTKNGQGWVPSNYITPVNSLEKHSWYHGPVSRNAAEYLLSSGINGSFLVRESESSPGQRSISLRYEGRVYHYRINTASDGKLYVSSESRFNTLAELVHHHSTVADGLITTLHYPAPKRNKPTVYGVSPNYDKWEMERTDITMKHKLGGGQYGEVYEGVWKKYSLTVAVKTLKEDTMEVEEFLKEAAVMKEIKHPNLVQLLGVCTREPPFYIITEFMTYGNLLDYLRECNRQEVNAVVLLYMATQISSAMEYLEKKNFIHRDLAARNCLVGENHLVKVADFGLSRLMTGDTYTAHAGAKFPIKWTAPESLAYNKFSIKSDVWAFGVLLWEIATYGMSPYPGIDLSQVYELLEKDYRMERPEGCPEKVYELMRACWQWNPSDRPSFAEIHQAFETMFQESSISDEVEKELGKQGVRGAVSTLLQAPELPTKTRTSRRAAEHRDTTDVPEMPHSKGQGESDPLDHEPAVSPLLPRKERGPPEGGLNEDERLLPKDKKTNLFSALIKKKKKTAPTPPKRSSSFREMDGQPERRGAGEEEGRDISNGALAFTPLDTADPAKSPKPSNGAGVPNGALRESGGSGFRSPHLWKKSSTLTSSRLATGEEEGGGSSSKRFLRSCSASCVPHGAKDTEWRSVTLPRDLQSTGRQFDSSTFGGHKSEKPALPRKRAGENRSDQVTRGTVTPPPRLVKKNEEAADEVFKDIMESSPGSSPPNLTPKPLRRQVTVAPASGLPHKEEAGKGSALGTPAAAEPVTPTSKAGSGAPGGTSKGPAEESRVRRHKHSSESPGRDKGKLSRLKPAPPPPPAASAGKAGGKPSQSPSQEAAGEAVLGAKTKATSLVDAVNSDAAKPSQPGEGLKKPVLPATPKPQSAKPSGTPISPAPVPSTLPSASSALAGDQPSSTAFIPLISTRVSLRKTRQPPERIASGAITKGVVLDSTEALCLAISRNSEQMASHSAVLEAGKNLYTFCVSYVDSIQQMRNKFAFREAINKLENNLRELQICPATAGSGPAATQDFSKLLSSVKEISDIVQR
T4 sequence (P29317 24-976): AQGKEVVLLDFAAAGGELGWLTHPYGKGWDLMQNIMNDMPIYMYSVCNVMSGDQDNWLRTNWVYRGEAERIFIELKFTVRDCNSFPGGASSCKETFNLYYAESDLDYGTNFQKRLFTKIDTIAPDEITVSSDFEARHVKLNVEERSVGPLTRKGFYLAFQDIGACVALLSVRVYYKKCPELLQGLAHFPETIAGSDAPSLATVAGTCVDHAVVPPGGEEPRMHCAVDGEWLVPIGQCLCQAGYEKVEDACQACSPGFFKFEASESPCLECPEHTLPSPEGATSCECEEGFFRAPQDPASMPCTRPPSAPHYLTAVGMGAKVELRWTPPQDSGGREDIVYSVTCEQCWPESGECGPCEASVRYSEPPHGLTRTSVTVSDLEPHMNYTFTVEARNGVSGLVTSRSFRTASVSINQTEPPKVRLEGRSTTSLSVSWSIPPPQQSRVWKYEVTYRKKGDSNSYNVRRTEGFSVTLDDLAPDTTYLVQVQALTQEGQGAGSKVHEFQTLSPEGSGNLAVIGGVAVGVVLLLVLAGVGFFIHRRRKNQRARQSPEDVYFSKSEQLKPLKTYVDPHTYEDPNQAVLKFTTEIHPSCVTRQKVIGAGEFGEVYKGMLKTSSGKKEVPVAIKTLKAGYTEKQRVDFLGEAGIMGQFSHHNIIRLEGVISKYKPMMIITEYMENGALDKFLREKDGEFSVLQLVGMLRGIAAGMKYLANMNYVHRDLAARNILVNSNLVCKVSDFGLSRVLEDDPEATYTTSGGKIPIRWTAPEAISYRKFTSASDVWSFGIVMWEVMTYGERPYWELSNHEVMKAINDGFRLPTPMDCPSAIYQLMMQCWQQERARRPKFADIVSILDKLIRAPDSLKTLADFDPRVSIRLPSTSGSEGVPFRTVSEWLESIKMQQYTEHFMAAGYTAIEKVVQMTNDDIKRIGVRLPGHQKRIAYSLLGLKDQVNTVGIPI
T1 sequence (P50613 whole entry): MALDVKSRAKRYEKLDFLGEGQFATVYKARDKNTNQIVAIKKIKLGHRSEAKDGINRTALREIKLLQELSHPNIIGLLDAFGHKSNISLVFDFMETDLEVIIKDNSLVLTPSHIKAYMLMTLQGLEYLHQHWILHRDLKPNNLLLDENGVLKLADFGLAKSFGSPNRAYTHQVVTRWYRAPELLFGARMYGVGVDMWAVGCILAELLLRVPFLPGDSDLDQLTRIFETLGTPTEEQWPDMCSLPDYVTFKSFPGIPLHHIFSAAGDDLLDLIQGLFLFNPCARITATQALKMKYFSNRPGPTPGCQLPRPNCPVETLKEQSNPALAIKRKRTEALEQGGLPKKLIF
T11 sequence (P21802 22-821): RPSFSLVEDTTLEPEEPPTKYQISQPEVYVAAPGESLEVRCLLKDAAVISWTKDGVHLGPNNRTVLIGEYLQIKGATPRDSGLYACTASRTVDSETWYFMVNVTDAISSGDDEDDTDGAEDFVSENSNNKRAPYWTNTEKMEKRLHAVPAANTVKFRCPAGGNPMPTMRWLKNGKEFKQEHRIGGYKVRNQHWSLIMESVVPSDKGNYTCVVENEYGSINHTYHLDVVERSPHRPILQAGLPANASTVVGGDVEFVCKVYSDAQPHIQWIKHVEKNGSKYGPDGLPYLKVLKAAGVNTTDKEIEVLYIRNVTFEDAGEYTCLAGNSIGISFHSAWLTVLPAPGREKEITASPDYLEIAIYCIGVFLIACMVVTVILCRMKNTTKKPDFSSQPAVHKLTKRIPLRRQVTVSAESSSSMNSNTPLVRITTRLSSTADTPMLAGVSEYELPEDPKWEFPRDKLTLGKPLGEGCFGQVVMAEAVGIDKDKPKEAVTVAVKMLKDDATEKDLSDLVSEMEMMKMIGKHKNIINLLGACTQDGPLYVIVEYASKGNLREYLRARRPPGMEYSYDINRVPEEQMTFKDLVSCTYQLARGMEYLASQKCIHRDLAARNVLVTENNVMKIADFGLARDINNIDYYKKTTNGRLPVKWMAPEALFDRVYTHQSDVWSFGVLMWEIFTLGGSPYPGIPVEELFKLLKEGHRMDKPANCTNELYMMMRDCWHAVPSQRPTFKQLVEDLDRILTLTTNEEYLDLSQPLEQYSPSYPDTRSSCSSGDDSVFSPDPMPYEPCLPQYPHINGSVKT

Row | Compound | remaining binding at 2 µM [1] | remaining binding at 2 µM [2] | remaining binding at 2 µM [3] | remaining binding at 2 µM [4] | remaining binding at 2 µM [5] | remaining binding at 2 µM [6] | remaining binding at 2 µM [7] | remaining binding at 2 µM [8] | remaining binding at 2 µM [9] | remaining binding at 2 µM [10] | remaining binding at 2 µM [11] | remaining binding at 2 µM [12] | remaining binding at 2 µM [13] | EdU intensity per cell in EdU-positive population (in words) [14] | incorporation of CldU and IdU / replication fork speed (in words) [15] | effect on cell viability [16] | IR-induced phosphorylation of ATM, H2AX, or KAP-1 (in words) ([17]; 10 μM 24 h) | induction of RPA-coated ssDNA, p53, phosphorylation of ATR, ATM, Chk1, H2AX (in words) ([17]; no IR) | IR-induced Mre11 or Nbs1 foci formation (in words) [18]
1 | O=C(O)c1ccc(NS(=O)(=O)c2cccc(-c3cc(F)ccc3O)c2)cc1O [KAN0438241, 4-{[(5′-Fluoro-2′-hydroxybiphenyl-3-yl)sulfonyl]amino}-2-hydroxybenzoic acid] | 93% | 93% | 100% | 100% | 100% | 100% | 100% | 97% | 96% | 99% | 88% | 95% | 94% | – | – | – | – | – | –
2 | O=C(OCCO)c1ccc(NS(=O)(=O)c2cccc(-c3cc(F)ccc3O)c2)cc1O [KAN0438757, 2-Hydroxyethyl-4-{[(5′-fluoro-2′-hydroxybiphenyl-3-yl)sulfonyl]amino}-2-hydroxybenzoate] | – | – | – | – | – | – | – | – | – | – | – | – | – | decreased EdU intensity per cell | severely decreased | significantly reduce cell viability | did not affect | did not induce | did not affect
